Measured values reported in patent US20020031795A1, “Nitrocoumarins for detecting all micro-organisms” (priority 1998, published 2002).

What was measured:
Format in all cases: cell-based
[1] = system: five different species of Enterobacteriaceae; assay: Reduction by wild strains of five species of Enterobacteriaceae (summary); conditions: 0.17 mmol/l
Protocol: This experiment was designed to investigate whether or not it would be possible to detect Enterobacteriaceae other than E. coli using 7-nitrocoumarin-3-carboxylic acid. The conditions for this experiment were similar to those described for the first experiment (section A).
Five wild strains belonging to the species Citrobacter diversus, Enterobacter agglomerans, Hafnia alvei, Morganella morganii and Shigella sonnei were tested

[2] = system: Candida albicans (ATCC 90028); assay: Fluorescence after 24 hours, serial dilutions in Trypticase Soy broth; conditions: for Fluorescence reading: 24 hours
Protocol: (§1) This experiment was performed to test 7-nitrocoumarin-3-carboxylic acid on sixteen (16) different types of microorganism, including one yeast species.
(§2) A mass of 10 mg of the indicator was dissolved in 4 ml of hot, distilled water and this solution was then added to 96 ml of Trypticase Soy broth. The resultant mixture was sterile-filtered.
[…] Each culture was then diluted 1,000-fold in Trypticase Soy broth and then serial 10-fold dilutions were made in more Trypticase Soy broth until the test aliquot contained no more microbial cells.
(§3) The resultant dilutions ranged from 10^−3 to 10^−13.
(§4) Fifty microliters of each dilution plus 50 μl of Trypticase Soy broth were added to wells of a microtiter plate with or without 7-nitrocoumarin-3-carboxylic acid.
The plates were read (T zero) and then incubated at 35° C. before being read again after 24 hours. Two different readings were made at each time point:
(§5) of the fluorescence (excitation at 365 nm and emission at 440 nm), using a Biolite F1 2001 fluorometer (Labtech International Limited), for wells containing 7-nitrocoumarin-3-carboxylic acid.

[3] = system: Enterobacteriaceae, non-fermenting Gram-positive bacilli, Staphylococcus spp., Streptococcus spp., Listeria spp. and yeasts; assay: Reduction of nitrocoumarin derivatives by most microorganisms (results not presented)
[4] = system: sixteen different microorganisms; assay: Growth indicator test on sixteen different microorganisms (summary)
Protocol: as §1, §2
All the microorganisms were grown for 24 hours in Trypticase Soy broth at 35° C. Each culture was then diluted 1,000-fold in Trypticase Soy broth and then serial 10-fold dilutions were made in more Trypticase Soy broth until the test aliquot contained no more microbial cells.
as §3, §4
The plates were read (T zero) and then incubated at 35° C. before being read again after 24 hours. Two different readings were made at each time point: […]
as §5
In order to check the correlation between growth and the fluorescence results, the contents of each well were seeded on Columbia agar supplemented with sheep blood.

O=C(O)c1cc2ccc([N+](=O)[O-])cc2oc1=O [7-nitrocoumarin-3-carboxylic acid] was tested, and the “Reduction by wild strains of five Enterobacteriaceae species (in words)” value [1] was “All the strains tested were found to be able to reduce this compound”, the Fluorescence reading ([2]; dilution 10^−3) was 2847 and the Fluorescence reading ([2]; dilution 10^−4) was 2609. The Fluorescence reading ([2]; dilution 10^−5) was 2335, the Fluorescence reading ([2]; dilution 10^−6) was 2041 and the Fluorescence reading ([2]; dilution 10^−7) was 1693. The Fluorescence reading ([2]; dilution 10^−8) was 1745, the Fluorescence reading ([2]; dilution 10^−9) was 1693 and the Fluorescence reading ([2]; dilution 10^−10) was 1751. It also gave a Fluorescence reading ([2]; dilution 10^−11) of 1666, a Fluorescence reading ([2]; dilution 10^−12) of 1702 and a Fluorescence reading ([2]; dilution 10^−13) of 1666. The “Fluorescent signal compared with bacteria (in words)” value ([2]; RPMI medium, results not presented) was “comparable to that generated by the bacteria”, the “Fluorescent signal compared with bacteria (in words)” value ([2]; Trypticase Soy broth) was “only a faint fluorescent signal” and the “Reduction to give a fluorescent signal (in words)” value [3] was “All were capable of reducing”. For the same compound, the “Correlation of fluorescence readings with microbial growth (in words)” value ([4]; 24 hours, Trypticase Soy broth) was “correlate closely with microbial growth patterns for all the species tested” and the “Sensitivity of the assay (in words)” value ([4]; limiting dilution) was “capable of detecting a single viable cell”.
